The record followed here is US5006535A, “Substituted heterocylic 4-aminoquinoline derivatives as gastric acid secretion inhibitors” (Smith Kline & French Laboratories Ltd., priority 1988, dated 1991).

Test [1] deals with pentagastrin stimulated gastric acid secretion. Nature of the test: Rat Lumen Perfused Stomach (pentagastrin stimulated gastric acid secretion). Type of test: in vivo. The settings on record: for % inhibition of pentagastrin stimulated gastric acid secretion: i.v., 10 μmole/kg. The source says: B. Rat Lumen Perfused Stomach (pentagastrin stimulated gastric acid secretion).
Using a modification of the procedure described by Ghosh & Schild (Br. J. Pharmacology, 13, 54, 1958), the compounds of the following examples were found on i.v. administration at a concentration of 10 μmole/kg to cause an inhibition of pentagastrin stimulated gastric acid secretion as indicated in the following table. Results are given as % inhibition at 10 μmole/kg or ED50 (μM/kg): […]

Another test concerns the target T1, H^+ K^+ ATPase (Sus scrofa, UniProt P19156).
T1 construct: Lyophilised gastric vesicles were prepared from pig fundic mucosa; from tissue; host or cells: pig fundic mucosa, lyophilised gastric vesicles
Nature of the test: H^+ K^+ ATPase Activity (K^+ -stimulated ATPase activity in lyophilised gastric vesicles). The settings on record: pig lyophilised gastric vesicles, pH 7.0, 37°, 30 minutes. Type of test: biochemical. As to the method:
The effects of a single high concentration (100 μM) of a compound of structure (I) on K-stimulated ATPase activity in lyophilised gastric vesicles was determined. Preferred compounds of structure (I) were also tested over a range of concentrations to determine IC50 values.
Lyophilised gastric vesicles were prepared from pig fundic mucosa after the method of Keeling et. al. (Biochem. Pharmacol., 34, 2967, 1985).
K^+ -stimulated ATPase activity was determined at 37° in the presence of the following: 10 mM Pipes/Tris buffer pH 7.0, 2 mM MgSO4, 1 mM KCl, 2 mM Na2 ATP and 3-6 μg protein/ml lyophilised gastric vesicles. After incubation for 30 minutes, the inorganic phosphate hydrolysed from ATP was determined by the method of Yoda and Hokin (Biochem. Biophys. Res. Commun. 40, 880, 1970).
Compounds of structure (I) were dissolved in dimethylsulphoxide which up to the highest concentration used had no effect on K^+ -stimulated ATPase activity.
The effect of the highest concentration of each compound of structure (I) on the recovery of a standard amount of inorganic phosphate was also determined.

T1 sequence (P19156 2-1034 limits assumed): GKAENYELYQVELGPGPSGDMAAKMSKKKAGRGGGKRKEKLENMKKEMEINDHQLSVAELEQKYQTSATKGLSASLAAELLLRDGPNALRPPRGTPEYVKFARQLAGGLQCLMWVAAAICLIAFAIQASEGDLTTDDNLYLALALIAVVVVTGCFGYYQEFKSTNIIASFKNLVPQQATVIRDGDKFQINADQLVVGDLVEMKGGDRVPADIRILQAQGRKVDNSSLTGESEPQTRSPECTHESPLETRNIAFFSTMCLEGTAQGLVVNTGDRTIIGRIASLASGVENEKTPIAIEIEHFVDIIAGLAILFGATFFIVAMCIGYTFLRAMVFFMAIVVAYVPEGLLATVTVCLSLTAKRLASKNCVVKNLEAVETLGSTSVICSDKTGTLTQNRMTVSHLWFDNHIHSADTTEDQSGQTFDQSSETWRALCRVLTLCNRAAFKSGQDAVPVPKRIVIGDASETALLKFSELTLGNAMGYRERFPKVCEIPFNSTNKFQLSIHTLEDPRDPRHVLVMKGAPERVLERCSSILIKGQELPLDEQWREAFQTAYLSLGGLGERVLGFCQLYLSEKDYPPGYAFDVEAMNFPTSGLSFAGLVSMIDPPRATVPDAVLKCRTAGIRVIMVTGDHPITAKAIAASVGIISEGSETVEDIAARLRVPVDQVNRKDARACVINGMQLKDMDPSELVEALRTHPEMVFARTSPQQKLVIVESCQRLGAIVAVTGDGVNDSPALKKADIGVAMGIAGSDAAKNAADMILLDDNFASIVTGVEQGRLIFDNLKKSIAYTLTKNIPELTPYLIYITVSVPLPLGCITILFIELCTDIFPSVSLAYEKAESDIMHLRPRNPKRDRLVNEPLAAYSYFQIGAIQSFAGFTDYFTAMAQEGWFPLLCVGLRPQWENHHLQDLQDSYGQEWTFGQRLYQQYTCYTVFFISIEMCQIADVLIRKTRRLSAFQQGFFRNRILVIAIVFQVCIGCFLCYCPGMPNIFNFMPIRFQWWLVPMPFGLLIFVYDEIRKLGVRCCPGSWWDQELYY
T1 sequence (P18434 whole entry partner): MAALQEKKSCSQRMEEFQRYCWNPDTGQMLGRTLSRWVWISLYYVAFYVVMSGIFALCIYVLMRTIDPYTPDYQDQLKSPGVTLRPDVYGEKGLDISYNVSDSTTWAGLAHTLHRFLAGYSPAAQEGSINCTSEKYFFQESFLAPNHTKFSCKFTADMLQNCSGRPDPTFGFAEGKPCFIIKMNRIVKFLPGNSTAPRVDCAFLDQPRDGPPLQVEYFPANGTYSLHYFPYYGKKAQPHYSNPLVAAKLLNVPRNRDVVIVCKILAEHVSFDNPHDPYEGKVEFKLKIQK

In general, ED50 refers to the dose that gives a 50% effect, or the effect in half of the subjects. The IC50 is the concentration that inhibits the measured activity by half. Low readings indicate greater potency in that assay, high ones weaker potency in that assay. In the case of `CCOC(=O)c1cnc2c(OC)cccc2c1Nc1cscc1C` [Example 1, Ethyl 8-methoxy-4-(4-methyl-3-thienylamino)quinoline 3-carboxylate], the ED50 in test [1] (iv, read-out: ED50, inhibition of pentagastrin stimulated gastric acid secretion) was found to be 4.62 µmol/kg. Further, the IC50 on H^+ K^+ ATPase came to 530 nM.

With `CCCC(=O)c1cnc2c(OC)cccc2c1Nc1ccsc1CC` [Example 2, 3-Butyryl-4-(2-ethyl-3-thienylamino)-8-methoxyquinoline], the “% inhibition of pentagastrin stimulated gastric acid secretion” value (“% inhibition” below) in test [1] was determined as 61%. Also, the IC50 on H^+ K^+ ATPase worked out at 1400 nM.

For `CCCC(=O)c1cnc2c(OC)cccc2c1Nc1ccsc1C(=O)OC` [Example 3], in test [1], the “% inhibition” value is listed as 48%.

With `CCCC(=O)c1cnc2c(OC)cccc2c1Nc1sccc1C` [Example 4, 3-Butyryl-4-(3-methyl-2-thienylamino)-8-methoxyquinoline], the “% inhibition” value in test [1] came out at 58%. This molecule also returned an IC50 against H^+ K^+ ATPase of 2300 nM.

Take `CCOC(=O)c1cnc2c(OC)cccc2c1Nc1cscc1OC` [Example 5, Ethyl 8-methoxy-4-(4-methoxy-3-thienylamino)quinoline-3-carboxylate]: the “% inhibition” value in test [1] came out at 41%. Moreover, the IC50 on H^+ K^+ ATPase was 3400 nM.
